From ChEMBL document CHEMBL4706634, “PEGylated and Acylated Elabela Analogues Show Enhanced Receptor Binding, Prolonged Stability, and Remedy of Acute Kidney Injury” (J Med Chem, 2020)
pEC50: −log10 of the molar value. Calls of active or inactive are those of the source. The calls are words filed in the database; no cut-off is given here.

Experiments:
[1] = Stability in mouse plasma assessed as intact peptide level at 1.56 mM incubated for 1 hr by RP-HPLC analysis; format: ADME, cell-free; conditions: read-out: Stabilty
[2] = Stability in mouse plasma assessed as half life at 1.56 mM by RP-HPLC analysis; format: ADME, cell-free
[3] = Stability in human plasma assessed as half life at 1.56 mM by RP-HPLC analysis; format: ADME, cell-free
Apelin receptor = molecular target: T1, Apelin receptor (Rattus norvegicus, UniProt Q9JHG3); test: Agonist activity at APJ receptor in rat NRK-52E cells assessed as effect on cAMP accumulation incubated for 1 hr by cAMP-Glo assay; format: functional, cell-based
T1 sequence (Q9JHG3 whole entry): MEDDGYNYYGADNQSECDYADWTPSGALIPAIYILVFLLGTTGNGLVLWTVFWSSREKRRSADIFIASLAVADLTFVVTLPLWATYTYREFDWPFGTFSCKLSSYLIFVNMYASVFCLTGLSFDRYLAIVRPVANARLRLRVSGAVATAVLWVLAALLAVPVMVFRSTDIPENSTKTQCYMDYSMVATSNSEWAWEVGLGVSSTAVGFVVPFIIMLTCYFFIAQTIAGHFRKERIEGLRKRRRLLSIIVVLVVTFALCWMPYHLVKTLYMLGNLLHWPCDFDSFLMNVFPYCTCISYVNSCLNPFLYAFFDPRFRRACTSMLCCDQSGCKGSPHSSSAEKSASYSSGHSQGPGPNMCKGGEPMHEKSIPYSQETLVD

Mus musculus [4] = test: Reno-protective activity in C57BL/6 mouse model of renal I/R injury assessed as improvement in pathologies in injured kidneys dosed intraperitoneally twice per day for 3 days from day of I/R injury to end of experiment by hematoxylin and eosin staining based assay; format: functional, organism-based; conditions: time 3.0 day
Mus musculus [5] = test: Reno-protective activity in C57BL/6 mouse model of renal I/R injury assessed as reduction in serum BUN level dosed intraperitoneally twice per day for 3 days from day of I/R injury to end of experiment; format: functional, organism-based; conditions: time 3.0 day
Mus musculus [6] = test: Reno-protective activity in C57BL/6 mouse model of renal I/R injury assessed as reduction neutrophil infiltration dosed intraperitoneally twice per day for 3 days from day of I/R injury to end of experiment; format: functional, organism-based; conditions: time 3.0 day
Mus musculus [7] = test: Reno-protective activity in C57BL/6 mouse model of renal I/R injury assessed as reduction lymphocyte infiltration dosed intraperitoneally twice per day for 3 days from day of I/R injury to end of experiment; format: functional, organism-based; conditions: time 3.0 day
Mus musculus [8] = test: Reno-protective activity in C57BL/6 mouse model of renal I/R injury assessed as reduction N-gal mRNA levels dosed intraperitoneally twice per day for 3 days from day of I/R injury to end of experiment by qPCR analysis; format: functional, organism-based; conditions: time 3.0 day
Mus musculus [9] = test: Reno-protective activity in C57BL/6 mouse model of renal I/R injury assessed as reduction in fibrosis by measuring collagen deposition dosed intraperitoneally twice per day for 3 days from day of I/R injury to end of experiment by Masson staining based assay; format: functional, organism-based; conditions: time 3.0 day
Mus musculus [10] = test: Reno-protective activity in C57BL/6 mouse model of renal I/R injury assessed as reduction in apoptosis by measuring increase in number of TUNEL+ cells dosed intraperitoneally twice per day for 3 days from day of I/R injury to end of experiment by TUNEL assay; format: functional, organism-based; conditions: time 3.0 day
Mus musculus [11] = test: Reno-protective activity in C57BL/6 mouse model of renal I/R injury assessed as reduction in p-MLK levels dosed intraperitoneally twice per day for 3 days from day of I/R injury to end of experiment by Western blot analysis; format: functional, organism-based; conditions: time 3.0 day
Mus musculus [12] = test: Reno-protective activity in C57BL/6 mouse model of renal I/R injury assessed as reduction in cleaved-caspase-3 levels dosed intraperitoneally twice per day for 3 days from day of I/R injury to end of experiment by Western blot analysis; format: functional, organism-based; conditions: time 3.0 day
Mus musculus [13] = test: Reno-protective activity in C57BL/6 mouse model of renal I/R injury assessed as suppression of reduction in cleaved-caspase-8 levels dosed intraperitoneally twice per day for 3 days from day of I/R injury to end of experiment by Western blot analysis; format: functional, organism-based; conditions: time 3.0 day
NRK-52E [14] = test: Cytoprotective activity in rat NRK-52E cells assessed as reduction in H/R-injury induced cell death at 300 pM incubated for 24 hrs; format: functional, cell-based
NRK-52E [15] = test: Cytoprotective activity in rat NRK-52E cells assessed as reduction in cisplatin-induced cell death at 300 pM incubated for 24 hrs; format: functional, cell-based
[16] = Half life in mouse at 3 umol/kg, iv by analytical RP-HPLC analysis; format: ADME, organism-based; conditions: in vivo, dose 3 µmol/kg
Mus musculus [17] = test: Reno-protective activity in C57BL/6 mouse model of renal I/R injury assessed as reduction in serum creatinine level dosed intraperitoneally twice per day for 3 days from day of I/R injury to end of experiment; format: functional, organism-based; conditions: time 3.0 day
Mus musculus [18] = test: Reno-protective activity in C57BL/6 mouse model of renal I/R injury assessed as reduction Il6 mRNA levels dosed intraperitoneally twice per day for 3 days from day of I/R injury to end of experiment by qPCR analysis; format: functional, organism-based; conditions: time 3.0 day
Mus musculus [19] = test: Reno-protective activity in C57BL/6 mouse model of renal I/R injury assessed as reduction TNF-alpha mRNA levels dosed intraperitoneally twice per day for 3 days from day of I/R injury to end of experiment by qPCR analysis; format: functional, organism-based; conditions: time 3.0 day
Mus musculus [20] = test: Reno-protective activity in C57BL/6 mouse model of renal I/R injury assessed as reduction Kim1 mRNA levels dosed intraperitoneally twice per day for 3 days from day of I/R injury to end of experiment by qPCR analysis; format: functional, organism-based; conditions: time 3.0 day
Mus musculus [21] = test: Reno-protective activity in C57BL/6 mouse model of renal I/R injury assessed as suppression of renal tubular damage dosed intraperitoneally twice per day for 3 days starting from 6 to 24 hrs post I/R operation by hematoxylin and eosin staining based assay; format: functional, organism-based; conditions: time 3.0 day
Mus musculus [22] = test: Reno-protective activity in C57BL/6 mouse model of renal I/R injury assessed as suppression of renal dysfunction dosed intraperitoneally twice per day for 3 days starting from 6 hrs post I/R operation by hematoxylin and eosin staining based assay; format: functional, organism-based; conditions: time 3.0 day
Mus musculus [23] = test: Reno-protective activity in C57BL/6 mouse model of renal I/R injury assessed as reduction lymphocyte infiltration dosed intraperitoneally twice per day for 3 days starting from 6 to 24 hrs post I/R operation; format: functional, organism-based; conditions: time 3.0 day
Mus musculus [24] = test: Reno-protective activity in C57BL/6 mouse model of renal I/R injury assessed as reduction neutrophil infiltration dosed intraperitoneally twice per day for 3 days starting from 6 to 24 hrs post I/R operation; format: functional, organism-based; conditions: time 3.0 day
Mus musculus [25] = test: Reno-protective activity in C57BL/6 mouse model of renal I/R injury assessed as reduction Kim1 mRNA expression dosed intraperitoneally twice per day for 3 days starting from 6 to 24 hrs post I/R operation by qPCR analysis; format: functional, organism-based; conditions: time 3.0 day
Mus musculus [26] = test: Reno-protective activity in C57BL/6 mouse model of renal I/R injury assessed as reduction in fibrosis by measuring collagen deposition dosed intraperitoneally twice per day for 3 days starting from 6 to 24 hrs post I/R operation by Masson staining based assay; format: functional, organism-based; conditions: time 3.0 day
Mus musculus [27] = test: Reno-protective activity in C57BL/6 mouse model of renal I/R injury assessed as reduction in tubular epithelial cell necroptosis dosed intraperitoneally twice per day for 3 days starting from 6 to 24 hrs post I/R operation by TUNEL assay; format: functional, organism-based; conditions: time 3.0 day
Mus musculus [28] = test: Reno-protective activity in C57BL/6 mouse model of renal I/R injury assessed as reduction in tubular epithelial cell apoptosis dosed intraperitoneally twice per day for 3 days starting from 6 to 24 hrs post I/R operation by TUNEL assay; format: functional, organism-based; conditions: time 3.0 day

Row | SMILES | remaining at 1 h, 1560 µM [1] | half-life at 1560 µM [2] | half-life at 1560 µM [3] | pEC50 (Apelin receptor) | half-life [16] | Activity (Mus musculus [4]) | Activity (Mus musculus [5]) | Activity (Mus musculus [6]) | Activity (Mus musculus [7]) | Activity (Mus musculus [8]) | Activity (Mus musculus [9]) | Activity (Mus musculus [10]) | Activity (Mus musculus [11]) | Activity (Mus musculus [12]) | Activity (Mus musculus [13]) | Activity (NRK-52E [14]) | Activity (NRK-52E [15]) | further results
1 | CSCC[C@H](NC(=O)[C@H](CS)NC(=O)[C@H](CCCNC(=N)N)NC(=O)[C@H](CCCNC(=N)N)NC(=O)[C@@H]1CCC(=O)N1)C(=O)N1CCC[C@H]1C(=O)N[C@@H](CC(C)C)C(=O)N[C@@H](Cc1c[nH]cn1)C(=O)N[C@@H](CO)C(=O)N[C@@H](CCCNC(=N)N)C(=O)N[C@H](C(=O)N1CCC[C@H]1C(=O)N[C@@H](Cc1ccccc1)C(=O)N1CCC[C@H]1C(N)=O)C(C)C | – | 17.4 min | – | – | – | – | – | – | – | – | – | – | – | – | – | – | – | –
2 | CCCCCCCCCCCCCCCC(=O)N[C@@H](CCC(=O)N[C@@H](CS)C(=O)N[C@@H](CCSC)C(=O)N1CCC[C@H]1C(=O)N[C@@H](CC(C)C)C(=O)N[C@@H](Cc1c[nH]cn1)C(=O)N[C@@H](CO)C(=O)N[C@@H](CCCNC(=N)N)C(=O)N[C@H](C(=O)N1CCC[C@H]1C(=O)N[C@@H](Cc1ccccc1)C(=O)N1CCC[C@H]1C(N)=O)C(C)C)C(=O)O | 63.6% | 87 min | 118 min | – | 1350 min | Active | Active | Active | Active | Active | Active | Active | Active | Active | Active | Active | Active | Activity (Mus musculus [17]): Active; Activity (Mus musculus [18]): Active; Activity (Mus musculus [19]): Active; Activity (Mus musculus [20]): Active; Activity (Mus musculus [21]): Active; Activity (Mus musculus [22]): Active; Activity (Mus musculus [23]): Active; Activity (Mus musculus [24]): Active; Activity (Mus musculus [25]): Active; Activity (Mus musculus [26]): Active; Activity (Mus musculus [27]): Active; Activity (Mus musculus [28]): Active

Further lines, with some results ahead:

Row | remaining at 1 h, 1560 µM [1] | half-life at 1560 µM [2] | half-life at 1560 µM [3] | pEC50 (Apelin receptor) | half-life [16] | SMILES | Activity (Mus musculus [4]) | Activity (Mus musculus [5]) | Activity (Mus musculus [6]) | Activity (Mus musculus [7]) | Activity (Mus musculus [8]) | Activity (Mus musculus [9]) | Activity (Mus musculus [10]) | Activity (Mus musculus [11]) | Activity (Mus musculus [12]) | Activity (Mus musculus [13]) | Activity (NRK-52E [14]) | Activity (NRK-52E [15]) | further results
3 | 38.7% | 47.4 min | 106 min | 8.11 | – | CSCC[C@H](NC(=O)[C@H](CS)NC(=O)CC[C@H](NC(=O)CCOCCOCCOCCOCCOCCOCCN)C(=O)O)C(=O)N1CCC[C@H]1C(=O)N[C@@H](CC(C)C)C(=O)N[C@@H](Cc1c[nH]cn1)C(=O)N[C@@H](CO)C(=O)N[C@@H](CCCNC(=N)N)C(=O)N[C@H](C(=O)N1CCC[C@H]1C(=O)N[C@@H](Cc1ccccc1)C(=O)N1CCC[C@H]1C(N)=O)C(C)C | Active | Active | Active | Active | Active | Active | Active | Active | Active | Active | Active | Active | –
4 | 75.9% | 305 min | > 1440 min | 8.02 | – | CCCCCCCCCCCCCCCC(=O)N[C@@H](CCC(=O)NCCCC[C@H](NC(=O)CCC(=O)N[C@@H](CS)C(=O)N[C@@H](CCSC)C(=O)N1CCC[C@H]1C(=O)N[C@@H](CC(C)C)C(=O)N[C@@H](Cc1c[nH]cn1)C(=O)N[C@@H](CO)C(=O)N[C@@H](CCCNC(=N)N)C(=O)N[C@H](C(=O)N1CCC[C@H]1C(=O)N[C@@H](Cc1ccccc1)C(=O)N1CCC[C@H]1C(N)=O)C(C)C)C(=O)N[C@@H](CS)C(=O)N[C@@H](CCSC)C(=O)N1CCC[C@H]1C(=O)N[C@@H](CC(C)C)C(=O)N[C@@H](Cc1c[nH]cn1)C(=O)N[C@@H](CO)C(=O)N[C@@H](CCCNC(=N)N)C(=O)N[C@H](C(=O)N1CCC[C@H]1C(=O)N[C@@H](Cc1ccccc1)C(=O)N1CCC[C@H]1C(N)=O)C(C)C)C(=O)O | inactive | – | inactive | inactive | – | inactive | – | – | – | – | – | – | –
5 | 25.8% | 30 min | 37.8 min | 8.10 | – | CCCCCCCCCCCCCCCC(=O)N[C@@H](CCC(=O)NCCCC[C@H](N)C(=O)N[C@@H](CS)C(=O)N[C@@H](CCSC)C(=O)N1CCC[C@H]1C(=O)N[C@@H](CC(C)C)C(=O)N[C@@H](Cc1c[nH]cn1)C(=O)N[C@@H](CO)C(=O)N[C@@H](CCCNC(=N)N)C(=O)N[C@H](C(=O)N1CCC[C@H]1C(=O)N[C@@H](Cc1ccccc1)C(=O)N1CCC[C@H]1C(N)=O)C(C)C)C(=O)O | Active | – | Active | Active | – | Active | Active | Active | Active | Active | – | – | –
6 | 19% | 22.8 min | 23.4 min | – | 21 min | CSCC[C@H](NC(=O)[C@@H](N)CS)C(=O)N1CCC[C@H]1C(=O)N[C@@H](CC(C)C)C(=O)N[C@@H](Cc1c[nH]cn1)C(=O)N[C@@H](CO)C(=O)N[C@@H](CCCNC(=N)N)C(=O)N[C@H](C(=O)N1CCC[C@H]1C(=O)N[C@@H](Cc1ccccc1)C(=O)N1CCC[C@H]1C(N)=O)C(C)C | Active | – | Active | Active | – | Active | Active | Active | Active | Active | Active | Active | –
